Test results taken from the Kinase Knowledgebase extract (Sharma et al. 2016).
pIC50: −log10 of the molar value.

biological target: ROCK2 (human) (UniProt O75116); experiment: Inhibition of ROCK2 Kinase Activity
Sequence (O75116 whole entry, looked up): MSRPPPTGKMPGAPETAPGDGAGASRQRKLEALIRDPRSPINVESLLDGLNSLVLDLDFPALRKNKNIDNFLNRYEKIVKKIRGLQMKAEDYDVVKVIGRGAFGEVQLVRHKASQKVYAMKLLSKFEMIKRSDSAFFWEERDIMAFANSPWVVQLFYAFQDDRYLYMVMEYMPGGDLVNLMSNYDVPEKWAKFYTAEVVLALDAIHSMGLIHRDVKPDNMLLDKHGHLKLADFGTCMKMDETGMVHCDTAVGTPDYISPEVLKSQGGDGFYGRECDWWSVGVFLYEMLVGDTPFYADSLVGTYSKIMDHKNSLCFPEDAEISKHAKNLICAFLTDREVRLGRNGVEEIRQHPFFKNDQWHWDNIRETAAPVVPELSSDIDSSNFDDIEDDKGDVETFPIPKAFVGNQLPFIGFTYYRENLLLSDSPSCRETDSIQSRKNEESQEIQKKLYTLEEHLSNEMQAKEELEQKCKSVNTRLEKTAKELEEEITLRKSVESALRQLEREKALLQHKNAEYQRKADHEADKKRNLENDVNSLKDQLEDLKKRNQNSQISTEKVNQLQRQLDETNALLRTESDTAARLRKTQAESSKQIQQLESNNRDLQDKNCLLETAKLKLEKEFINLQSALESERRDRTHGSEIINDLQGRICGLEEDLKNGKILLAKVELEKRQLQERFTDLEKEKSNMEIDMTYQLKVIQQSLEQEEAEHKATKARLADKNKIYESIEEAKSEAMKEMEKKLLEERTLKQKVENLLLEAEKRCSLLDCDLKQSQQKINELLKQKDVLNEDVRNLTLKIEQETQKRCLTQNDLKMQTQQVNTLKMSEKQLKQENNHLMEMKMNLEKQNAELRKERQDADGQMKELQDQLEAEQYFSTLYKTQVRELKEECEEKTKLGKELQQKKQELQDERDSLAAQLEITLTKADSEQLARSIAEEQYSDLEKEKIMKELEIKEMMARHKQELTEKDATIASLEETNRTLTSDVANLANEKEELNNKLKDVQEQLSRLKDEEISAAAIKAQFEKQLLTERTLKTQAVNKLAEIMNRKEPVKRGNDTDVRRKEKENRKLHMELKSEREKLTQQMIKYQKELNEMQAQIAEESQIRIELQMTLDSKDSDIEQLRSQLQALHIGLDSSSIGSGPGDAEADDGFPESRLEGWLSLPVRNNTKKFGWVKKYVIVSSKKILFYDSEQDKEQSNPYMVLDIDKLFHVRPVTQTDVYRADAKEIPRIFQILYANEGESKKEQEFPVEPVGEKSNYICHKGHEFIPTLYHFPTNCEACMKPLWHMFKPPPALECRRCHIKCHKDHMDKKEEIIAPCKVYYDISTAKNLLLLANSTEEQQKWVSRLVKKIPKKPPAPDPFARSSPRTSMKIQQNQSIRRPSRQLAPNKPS

| SMILES | pIC50 |
| --- | --- |
| NC(CNC(=O)C1CCSc2ccccc21)c1ccc(C(=O)Nc2ccncc2)cc1 (stereo unspecified) | 6.30 to 7.30 |
| CN(CC(N)c1ccc(C(=O)Nc2ccncc2)cc1)C(=O)C1CCOc2ccc(Cl)cc21 (stereo unspecified) | 5.30 to 6.30 |
| CCCOc1ccc(C(=O)NCC(N)c2ccc(C(=O)Nc3ccncc3)cc2)cc1 (stereo unspecified) | 5.30 to 6.30 |
| CC(C)(C(=O)NCC(N)c1ccc(C(=O)Nc2ccncc2)cc1)c1ccc(Cl)cc1F (stereo unspecified) | 6.30 to 7.30 |
| Cc1ccc(CC(=O)N2CCCC2C(N)c2ccc(C(=O)Nc3ccncc3)cc2)cc1 (stereo unspecified) | 5.30 to 6.30 |
| CCCCCCCCC(=O)NCC(N)c1ccc(C(=O)Nc2ccncc2)cc1 (stereo unspecified) | 6.30 to 7.30 |
| NC(CNC(=O)C1CCOC1)c1ccc(C(=O)Nc2ccncc2)cc1 (stereo unspecified) | 5.30 to 6.30 |
| NC(CNC(=O)CC(c1ccccc1)c1ccccc1)c1ccc(C(=O)Nc2ccncc2)cc1 (stereo unspecified) | 6.30 to 7.30 |
| CN(CC(N)c1ccc(C(=O)Nc2ccncc2)cc1)C(=O)C1(c2ccc(F)cc2)CCCC1 (stereo unspecified) | 5.30 to 6.30 |
| NC(c1ccc(C(=O)Nc2ccncc2)cc1)C1CCCN1C(=O)Cc1ccccc1 (stereo unspecified) | 6.30 to 7.30 |
| CN(Cc1ccccc1)C(=O)CC(N)c1ccc(C(=O)Nc2ccncc2)cc1 (stereo unspecified) | 6.30 to 7.30 |
| Cc1ccccc1CC(=O)N(C)CC(N)c1ccc(C(=O)Nc2ccncc2)cc1 (stereo unspecified) | 5.30 to 6.30 |
| NC(CC(=O)NCc1ccncc1)c1ccc(C(=O)Nc2ccncc2)cc1 (stereo unspecified) | 6.30 to 7.30 |
| CN(CC(N)c1ccc(C(=O)Nc2ccncc2)cc1)C(=O)Cc1ccc2ccccc2c1 (stereo unspecified) | 6.30 to 7.30 |
| NC(CNC(=O)Cc1csc(Nc2ccccc2)n1)c1ccc(C(=O)Nc2ccncc2)cc1 (stereo unspecified) | 5.30 to 6.30 |
| COc1ccc(NC(=O)CC(N)c2ccc(C(=O)Nc3ccncc3)cc2)cc1 (stereo unspecified) | 6.30 to 7.30 |
| COc1ccc(CCNC(=O)CC(N)c2ccc(C(=O)Nc3ccncc3)cc2)cc1 (stereo unspecified) | 6.30 to 7.30 |
| NC(CNC(=O)C1CC1)c1ccc(C(=O)Nc2ccncc2)cc1 (stereo unspecified) | 5.30 to 6.30 |
| Cc1ccccc1CNC(=O)CC(N)c1ccc(C(=O)Nc2ccncc2)cc1 (stereo unspecified) | 6.30 to 7.30 |
| NC(c1ccc(C(=O)Nc2ccncc2)cc1)C1CCCN1C(=O)Cc1ccc(Cl)cc1 (stereo unspecified) | 5.30 to 6.30 |
| CN(CC(N)c1ccc(C(=O)Nc2ccncc2)cc1)C(=O)Cc1c[nH]c2ccccc12 (stereo unspecified) | 5.30 to 6.30 |
| CN(CC(N)c1ccc(C(=O)Nc2ccncc2)cc1)C(=O)C(C)(C)c1ccc(F)c(F)c1 (stereo unspecified) | 5.30 to 6.30 |
| COc1cccc(C(=O)NCC(N)c2ccc(C(=O)Nc3ccncc3)cc2)c1 (stereo unspecified) | 5.30 to 6.30 |
| NC(c1ccc(C(=O)Nc2ccncc2)cc1)C1CCCN1C(=O)Cc1ccc(Cl)cc1F (stereo unspecified) | 5.30 to 6.30 |

| SMILES | pIC50 |
| --- | --- |
| NC(CC(=O)NCCc1ccccc1Cl)c1ccc(C(=O)Nc2ccncc2)cc1 (stereo unspecified) | 6.30 to 7.30 |
| Cc1cc(Cl)ccc1OC(C)C(=O)NCC(N)c1ccc(C(=O)Nc2ccncc2)cc1 (stereo unspecified) | 6.30 to 7.30 |
| COc1ccc(CC(=O)N(C)CC(N)c2ccc(C(=O)Nc3ccncc3)cc2)c(OC)c1 (stereo unspecified) | 6.30 to 7.30 |
| NC(CC(=O)NCc1ccc(-c2cccs2)cc1)c1ccc(C(=O)Nc2ccncc2)cc1 (stereo unspecified) | 6.30 to 7.30 |
| NC(CC(=O)NNC(=O)c1ccco1)c1ccc(C(=O)Nc2ccncc2)cc1 (stereo unspecified) | 6.30 to 7.30 |
| NC(c1ccc(C(=O)Nc2ccncc2)cc1)C1CCCN1C(=O)C1CCOc2ccccc21 (stereo unspecified) | 5.30 to 6.30 |
| CC(C)(C)c1ccc(NC(=S)NCC(N)c2ccc(C(=O)Nc3ccncc3)cc2)cc1 (stereo unspecified) | 5.30 to 6.30 |
| CC(C)(C(=S)NCC(N)c1ccc(C(=O)Nc2ccncc2)cc1)c1ccc(F)cc1 (stereo unspecified) | 6.30 to 7.30 |
| NC(c1ccc(C(=O)Nc2ccncc2)cc1)C1CCCN1C(=O)Cc1cncc(Br)c1 (stereo unspecified) | 5.30 to 6.30 |
| NC(CC(=O)NCc1cc(Cl)ccc1Cl)c1ccc(C(=O)Nc2ccncc2)cc1 (stereo unspecified) | 6.30 to 7.30 |
| NC(CNC(=O)Nc1ccc(Cl)cc1)c1ccc(C(=O)Nc2ccncc2)cc1 (stereo unspecified) | 6.30 to 7.30 |
| COc1ccc(Cl)cc1NC(=O)NCC(N)c1ccc(C(=O)Nc2ccncc2)cc1 (stereo unspecified) | 6.30 to 7.30 |
| NC(CNC(=O)c1ccc(F)cc1)c1ccc(C(=O)Nc2ccncc2)cc1 (stereo unspecified) | 5.30 to 6.30 |
| NC(c1ccc(C(=O)Nc2ccncc2)cc1)C1CCCN1C(=O)C1(c2ccc(F)c(F)c2)CCCC1 (stereo unspecified) | 5.30 to 6.30 |
| CN(CC(N)c1ccc(C(=O)Nc2ccncc2)cc1)C(=O)Cc1ccc(Cl)cc1F (stereo unspecified) | 5.30 to 6.30 |
| Cc1ccc(CC(=O)NCC(N)c2ccc(C(=O)Nc3ccncc3)cc2)cc1 (stereo unspecified) | 6.30 to 7.30 |
| CN(C)c1ccc(NC(=O)NCC(N)c2ccc(C(=O)Nc3ccncc3)cc2)cc1 (stereo unspecified) | 6.30 to 7.30 |
| NC(CNC(=O)Cc1ccccn1)c1ccc(C(=O)Nc2ccncc2)cc1 (stereo unspecified) | 5.30 to 6.30 |
| CC(C)CCC(=O)NCC(N)c1ccc(C(=O)Nc2ccncc2)cc1 (stereo unspecified) | 5.30 to 6.30 |
| CC(C)(Cc1ccc(F)cc1)NC(=O)CC(N)c1ccc(C(=O)Nc2ccncc2)cc1 (stereo unspecified) | 6.30 to 7.30 |
| NC(CNC(=S)Nc1cccc2ccccc12)c1ccc(C(=O)Nc2ccncc2)cc1 (stereo unspecified) | 6.30 to 7.30 |
| NC(CNC(=O)C1(c2ccc(F)cc2)CC1)c1ccc(C(=O)Nc2ccncc2)cc1 (stereo unspecified) | > 6.70 |
| NC(c1ccc(C(=O)Nc2ccncc2)cc1)C1CCCN1C(=O)C1(c2ccc(F)c(F)c2)CCC1 (stereo unspecified) | 5.30 to 6.30 |
| NC(CNC(=O)C1(c2ccc(F)c(F)c2)CC1)c1ccc(C(=O)Nc2ccncc2)cc1 (stereo unspecified) | 6.30 to 7.30 |

| SMILES | pIC50 |
| --- | --- |
| NC(CC(=O)NCc1ccccc1)c1ccc(C(=O)Nc2ccncc2)cc1 (stereo unspecified) | 6.30 to 7.30 |
| NC(c1ccc(C(=O)Nc2ccncc2)cc1)C1CCCN1C(=O)Cc1ccccc1F (stereo unspecified) | 6.30 to 7.30 |
| NC(c1ccc(C(=O)Nc2ccncc2)cc1)C1CCCN1C(=O)Cc1c[nH]c2ccccc12 (stereo unspecified) | 5.30 to 6.30 |
| CC[C@H](NC(=O)CC(N)c1ccc(C(=O)Nc2ccncc2)cc1)c1ccccc1 (stereo partly specified) | 6.30 to 7.30 |
| NC(CNC(=S)Nc1ccc(Cl)cc1)c1ccc(C(=O)Nc2ccncc2)cc1 (stereo unspecified) | 6.30 to 7.30 |
| NC(CNC(=O)c1ccccc1-c1ccccc1)c1ccc(C(=O)Nc2ccncc2)cc1 (stereo unspecified) | 5.30 to 6.30 |
| NC(CC(=O)NCc1cc(C(F)(F)F)cc(C(F)(F)F)c1)c1ccc(C(=O)Nc2ccncc2)cc1 (stereo unspecified) | 6.30 to 7.30 |
| NC(CNC(=O)C1Cc2ccccc21)c1ccc(C(=O)Nc2ccncc2)cc1 (stereo unspecified) | 6.30 to 7.30 |
| COCCC(=O)NCC(N)c1ccc(C(=O)Nc2ccncc2)cc1 (stereo unspecified) | 5.30 to 6.30 |
| NC(CNC(=O)C1(c2ccc(F)c(F)c2)CCC1)c1ccc(C(=O)Nc2ccncc2)cc1 (stereo unspecified) | 6.30 to 7.30 |
| CN(CC(N)c1ccc(C(=O)Nc2ccncc2)cc1)C(=O)Cc1cccc2ccccc12 (stereo unspecified) | 5.30 to 6.30 |
| NC(CNC(=O)c1cccc(Oc2ccccc2)c1)c1ccc(C(=O)Nc2ccncc2)cc1 (stereo unspecified) | 5.30 to 6.30 |
| CC(C)(C(=O)NCC(N)c1ccc(C(=O)Nc2ccncc2)cc1)c1cccs1 (stereo unspecified) | 6.30 to 7.30 |
| NC(CNC(=O)C1(c2ccc(F)cc2Cl)CC1)c1ccc(C(=O)Nc2ccncc2)cc1 (stereo unspecified) | 6.30 to 7.30 |
| COc1ccc(C2(C(=O)N(C)CC(N)c3ccc(C(=O)Nc4ccncc4)cc3)CC2)cc1 (stereo unspecified) | 5.30 to 6.30 |
| NC(CNC(=O)NC1CCCC1)c1ccc(C(=O)Nc2ccncc2)cc1 (stereo unspecified) | 5.30 to 6.30 |
| CCOCC(=O)NCC(N)c1ccc(C(=O)Nc2ccncc2)cc1 (stereo unspecified) | 5.30 to 6.30 |
| NC(CNC(=O)c1ccccc1Oc1ccccc1)c1ccc(C(=O)Nc2ccncc2)cc1 (stereo unspecified) | 5.30 to 6.30 |
| NC(CC(=O)NCCc1ccccc1)c1ccc(C(=O)Nc2ccncc2)cc1 (stereo unspecified) | 6.30 to 7.30 |
| CN(CC(N)c1ccc(C(=O)Nc2ccncc2)cc1)C(=O)Cc1ccc(Cl)cc1Cl (stereo unspecified) | 5.30 to 6.30 |
| CC(C)C(C)NC(=O)CC(N)c1ccc(C(=O)Nc2ccncc2)cc1 (stereo unspecified) | 6.30 to 7.30 |
| CN(CC(N)c1ccc(C(=O)Nc2ccncc2)cc1)C(=O)C1(c2ccc(Cl)cc2)CC1 (stereo unspecified) | 5.30 to 6.30 |

Other lines, results leading:

| pIC50 | SMILES |
| --- | --- |
| 6.30 to 7.30 | NC(CC(=O)NCc1cc(Cl)cc(Cl)c1)c1ccc(C(=O)Nc2ccncc2)cc1 (stereo unspecified) |
| 6.30 to 7.30 | NC(CNC(=O)c1ccoc1)c1ccc(C(=O)Nc2ccncc2)cc1 (stereo unspecified) |
| 5.30 to 6.30 | NC(CNC(=O)c1ccccn1)c1ccc(C(=O)Nc2ccncc2)cc1 (stereo unspecified) |
| 5.30 to 6.30 | Cc1nc(-c2ccccc2)sc1C(=O)NCC(N)c1ccc(C(=O)Nc2ccncc2)cc1 (stereo unspecified) |
| 6.30 to 7.30 | Cc1ccc(CCNC(=O)CC(N)c2ccc(C(=O)Nc3ccncc3)cc2)cc1 (stereo unspecified) |
| 6.30 to 7.30 | NC(CC(=O)NC(Cc1ccccc1)c1ccccc1)c1ccc(C(=O)Nc2ccncc2)cc1 (stereo unspecified) |
| 5.30 to 6.30 | CC(C)(C(=O)N1CCCC1C(N)c1ccc(C(=O)Nc2ccncc2)cc1)c1ccsc1 (stereo unspecified) |
| 6.30 to 7.30 | CC1CCC(NC(=O)CC(N)c2ccc(C(=O)Nc3ccncc3)cc2)CC1 (stereo unspecified) |
| 5.30 to 6.30 | NC(CNC(=O)c1csc(Nc2ccc(F)cc2)n1)c1ccc(C(=O)Nc2ccncc2)cc1 (stereo unspecified) |
| 5.30 to 6.30 | NC(c1ccc(C(=O)Nc2ccncc2)cc1)C1CCCN1C(=O)C1(c2ccc(F)c(Cl)c2)CC1 (stereo unspecified) |
| 5.30 to 6.30 | CN(CC(N)c1ccc(C(=O)Nc2ccncc2)cc1)C(=O)Cc1ccc(C(F)(F)F)cc1 (stereo unspecified) |
| 5.30 to 6.30 | NC(CNC(=O)c1ccc(Cl)cc1)c1ccc(C(=O)Nc2ccncc2)cc1 (stereo unspecified) |
| 6.30 to 7.30 | NC(CC(=O)NCc1cccc(Br)c1)c1ccc(C(=O)Nc2ccncc2)cc1 (stereo unspecified) |
| 5.30 to 6.30 | COc1ccc(CC(=O)N2CCCC2C(N)c2ccc(C(=O)Nc3ccncc3)cc2)c(OC)c1 (stereo unspecified) |
| 5.30 to 6.30 | NC(CNC(=O)C1(c2ccccc2)CC1)c1ccc(C(=O)Nc2ccncc2)cc1 (stereo unspecified) |
| 6.30 to 7.30 | Cc1cc(Cl)cc(Cl)c1CNC(=O)CC(N)c1ccc(C(=O)Nc2ccncc2)cc1 (stereo unspecified) |

| pIC50 | SMILES |
| --- | --- |
| 6.30 to 7.30 | COc1ccccc1CNC(=O)CC(N)c1ccc(C(=O)Nc2ccncc2)cc1 (stereo unspecified) |
| 5.30 to 6.30 | COc1ccc2[nH]c(C(=O)NCC(N)c3ccc(C(=O)Nc4ccncc4)cc3)cc2c1 (stereo unspecified) |
| 5.30 to 6.30 | CC(C)C(C(=O)N1CCCC1C(N)c1ccc(C(=O)Nc2ccncc2)cc1)c1ccc(Cl)cc1 (stereo unspecified) |
| 6.30 to 7.30 | CCN(Cc1ccc([N+](=O)[O-])cc1)C(=O)CC(N)c1ccc(C(=O)Nc2ccncc2)cc1 (stereo unspecified) |
| 6.30 to 7.30 | CC[C@H](NC(=O)CC(N)c1ccc(C(=O)Nc2ccncc2)cc1)c1ccc(C)cc1 (stereo partly specified) |
| 5.30 to 6.30 | NC(c1ccc(C(=O)Nc2ccncc2)cc1)C1CCCN1C(=O)C(c1ccccc1)C1CCCCC1 (stereo unspecified) |
| 6.30 to 7.30 | NC(CNC(=O)C1(c2ccc(Cl)c(Cl)c2)CC1)c1ccc(C(=O)Nc2ccncc2)cc1 (stereo unspecified) |
| 6.30 to 7.30 | Cc1ccccc1CC(=O)NCC(N)c1ccc(C(=O)Nc2ccncc2)cc1 (stereo unspecified) |
| 5.30 to 6.30 | NC(CNC(=O)CC1CCCC1)c1ccc(C(=O)Nc2ccncc2)cc1 (stereo unspecified) |
| 5.30 to 6.30 | NC(CNC(=O)c1ccc2[nH]nnc2c1)c1ccc(C(=O)Nc2ccncc2)cc1 (stereo unspecified) |
| 6.30 to 7.30 | NC(CC(=O)NCCc1ccc(F)cc1)c1ccc(C(=O)Nc2ccncc2)cc1 (stereo unspecified) |
| 6.30 to 7.30 | NC(CC(=O)NCc1ccccc1C(F)(F)F)c1ccc(C(=O)Nc2ccncc2)cc1 (stereo unspecified) |
| 5.30 to 6.30 | CN(CC(N)c1ccc(C(=O)Nc2ccncc2)cc1)C(=O)C1(c2ccc(F)c(F)c2)CCC1 (stereo unspecified) |
| 5.30 to 6.30 | CN(CC(N)c1ccc(C(=O)Nc2ccncc2)cc1)C(=O)Cc1ccc(F)c(F)c1 (stereo unspecified) |
| 6.30 to 7.30 | COc1ccc(CNC(=O)NCC(N)c2ccc(C(=O)Nc3ccncc3)cc2)cc1 (stereo unspecified) |
